Assay results taken from publication PMC8443696, “Structural determinants and regulation of spontaneous activity in GABAA receptors” (Nature Communications, 2021).
Where “and” joins values, the source holds several entries; their conditions need not be identical. Equal entries are not always repeated. Where two headings read alike, the source gives them in different places.

What was measured:
[1] = biological target: T1, α4β3δ receptors (UniProt P18506+P63080+Q9D6F4); type: cell-based, mouse;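 as to GABA current, Supp. Fig. 2b: GABA applied at 0.3 µM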
T1 construct: expressed in transfected cells; host or cells: HEK 293
Source text: (§1) All components were obtained from Life Technologies.
(§2) Currents were acquired with Clampex ver.
(§3) Cells were voltage clamped at −40 mV.
(§4) All data were normalised to the fitted maximum response.

[2] = biological target: α4β3^DNTKδ receptors (UniProt P18506+P63080+Q9D6F4, E204T/G196D/K198N/R205K)
Source text: as §1, §2, §3, §4

[3] = biological target: α4β3^K279Tγ2L receptors (Mus musculus, UniProt P22723+P63080+Q9D6F4, K304T)
Source text: as §1, §2, §3, §4

[4] = biological target: T2, α4β3γ2L receptors (Mus musculus, UniProt P22723+P63080+Q9D6F4); assay: GABA concentration-response curves, whole-cell patch clamp in HEK cells; type: cell-based
T2 construct: expressed in transfected cells; host or cells: HEK 293
Source text: as §1, §2, §3, §4

[5] = biological target: T1, α4β3δ receptors; type: cell-based, mouse; conditions: α4β3δ GABA (Fig. 1d); GABA 500 µM, PTX 100 µM; individual cells
Source text: as §1, §2, §3
(§5) For assessment of the efficacy of allosteric modulators on spontaneous activity, compounds were briefly applied (3–5 s) to achieve steady-state currents (IMod). […] The IMod was summed with IPTX (or subtracted for inhibitory modulators) and the Ispont calculated, as described by Eq. (2):2 Ispont(%)=[(IPTX+IMod)/(IPTX+IMax)]×100……………………………………

[6] = test system: T3, α1β3γ2L receptors; assay: Quantification of spontaneous activity (Ispont) in HEK cells, whole-cell patch clamp; type: cell-based, mouse; conditions: α1β3γ2L GABA (Fig. 1d); GABA 500 µM, PTX 100 µM; individual cells
T3 construct: expressed in transfected cells; host or cells: HEK 293
Source text: as §1, §2, §3, §5

[7] = test system: T4, α4β3 receptors; assay: Agonist-evoked whole-cell currents and their modulation by Zn2+ / DS2 in HEK cells;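 as to GABA current, Supp. Fig. 2b: GABA applied at 0.3 µM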; type: cell-based, mouse; parameters: GABA current, Supp. Fig. 2b / GABA + DS2 current, Supp. Fig. 2b / GABA current, Supp. Fig. 2a: unit not given here
T4 construct: expressed in transfected cells; host or cells: HEK 293
Source text: as §1, §2, §3

[8] = biological target: T1, α4β3δ receptors; assay: as above; type: cell-based, mouse; conditions: GABA alone, individual cells
Source text: as §1, §2, §3

[9] = biological target: T2, α4β3γ2L receptors; assay: Agonist-evoked whole-cell currents and their modulation by Zn2+ in HEK cells; type: cell-based; conditions: GABA alone, individual cells
Source text: as §1, §2, §3

## NCCCC(=O)O [GABA, γ-aminobutyric acid]
[1]; [GABA] 0.1, individual cells
  GABA current normalised to the fitted maximum response: 0.5073 and 0.405 and 0.6131
[1]; individual cells
  nH: 0.63 and 0.57 and 0.45 and 0.59 and 0.53 and 0.44 and 0.46 and 0.51
[1]; mean ± SEM, n = 9
  Hill coefficient: 0.5 ± 0.02
[2]; α4β3DNTKδ, [GABA] 0.01, individual cells
  GABA current normalised to the fitted maximum response: 0.0007434 and 0.002452 and 0.03107 and 0.001383 and 0.00433 and 0.003861 and 0.002036 and 0.01162 and 0 and 0.01893
[2]; α4β3DNTKδ, [GABA] 0.03, individual cells
  GABA current normalised to the fitted maximum response: 0.007062 and 0.01195 and 0.04826 and 0.01383 and 0.009382 and 0.004413 and 0.007126 and 0.02054 and 0.004552 and 0.04327
[2]; α4β3DNTKδ, [GABA] 0.1, individual cells
  GABA current normalised to the fitted maximum response: 0.04328 and 0.0495 and 0.09628 and 0.06221 and 0.03922 and 0.04794 and 0.04133 and 0.1252 and 0.03443 and 0.105
[2]; α4β3DNTKδ, [GABA] 0.3, individual cells
  GABA current normalised to the fitted maximum response: 0.1541 and 0.16 and 0.2541 and 0.193 and 0.1198 and 0.1414 and 0.1295 and 0.114 and 0.2315
[2]; α4β3DNTKδ, [GABA] 1, individual cells
  GABA current normalised to the fitted maximum response: 0.3807 and 0.3987 and 0.5261 and 0.4351 and 0.4134 and 0.5199 and 0.3786 and 0.5032
[2]; α4β3DNTKδ, [GABA] 3, individual cells
  GABA current normalised to the fitted maximum response: 0.6642 and 0.6962 and 0.7428 and 0.6422 and 0.5604 and 0.7146 and 0.5958 and 0.7349 and 0.6146 and 0.6907
[2]; α4β3DNTKδ, [GABA] 10, individual cells
  GABA current normalised to the fitted maximum response: 0.8725 and 0.8838 and 0.9794 and 0.868 and 0.8251 and 0.879 and 0.7932 and 0.8504 and 0.9182 and 0.913
[2]; α4β3DNTKδ, [GABA] 30, individual cells
  GABA current normalised to the fitted maximum response: 0.9699 and 0.9833 and 0.9744 and 0.9032 and 0.8901 and 0.9131 and 0.9034 and 0.7914 and 0.976 and 0.9404
[2]; α4β3DNTKδ, [GABA] 100, individual cells
  GABA current normalised to the fitted maximum response: 0.9851 and 0.9946 and 0.9484 and 0.9857 and 0.9989 and 1.0526 and 1.007 and 0.9834 and 1.041 and 0.9979
[2]; α4β3DNTKδ, [GABA] 300, individual cells
  GABA current normalised to the fitted maximum response: 0.994 and 0.9896 and 0.9955 and 1.01 and 0.9818 and 1.0044 and 0.9828 and 1.081 and 0.9165 and 0.972
[2]; α4β3DNTKδ, individual cells
  nH: 0.91 and 0.96 and 1.1 and 0.94 and 0.75 and 1.12 and 1.06 and 1
[2]; α4β3^DNTKδ, mean ± SEM, n = 10
  Hill coefficient: 1.0 ± 0.04
[3]; α4β3K279Tγ2L, [GABA] 0.001, individual cells
  GABA current normalised to the fitted maximum response: 0.2519 and 0 (3×) and 0.1524 and 0.248
[3]; α4β3K279Tγ2L, [GABA] 0.003, individual cells
  GABA current normalised to the fitted maximum response: 0.1404 and 0.2434 and 0.2001 and 0.06943 and 0 (2×)
[3]; α4β3K279Tγ2L, [GABA] 0.01, individual cells
  GABA current normalised to the fitted maximum response: 0.2519 and 0.1217 and 0.166 and 0.124 and 0.0823 and 0.03949
[3]; α4β3K279Tγ2L, [GABA] 0.03, individual cells
  GABA current normalised to the fitted maximum response: 0.2267 and 0.2011 and 0.2911 and 0.2232 and 0.2097 and 0.1075
[3]; α4β3K279Tγ2L, [GABA] 0.1, individual cells
  GABA current normalised to the fitted maximum response: 0.3277 and 0.4723 and 0.5922 and 0.2125 and 0.4931 and 0.3266
[3]; α4β3K279Tγ2L, [GABA] 0.3, individual cells
  GABA current normalised to the fitted maximum response: 0.407 and 0.5504 and 0.3093 and 1.165 and 0.3595
[3]; α4β3K279Tγ2L, [GABA] 1, individual cells
  GABA current normalised to the fitted maximum response: 0.6167 and 0.8427 and 0.9144 and 0.4437 and 0.6991 and 0.6708
[3]; α4β3K279Tγ2L, [GABA] 3, individual cells
  GABA current normalised to the fitted maximum response: 0.7288
[3]; α4β3K279Tγ2L, individual cells
  nH: 0.3987 and 0.6455 and 0.6824 and 0.44 and 1.925 and 0.7169
[3]; α4β3^K279Tγ2L, mean ± SEM, n = 6
  Hill coefficient: 0.8 ± 0.2
[4]; [GABA] 0.01, individual cells
  GABA current normalised to the fitted maximum response: 0.001664 and 0.002276 and 0.001669 and 0.01171 and 0.01147
[4]; [GABA] 0.03, individual cells
  GABA current normalised to the fitted maximum response: 0.005144 and 0.004138 and 0.00402 and 0.01346 and 0.01822
[4]; [GABA] 0.1, individual cells
  GABA current normalised to the fitted maximum response: 0.01452 and 0.01076 and 0.01069 and 0.03174 and 0.04395
[4]; [GABA] 0.3, individual cells
  GABA current normalised to the fitted maximum response: 0.02596 and 0.02427 and 0.06574 and 0.085
[4]; [GABA] 1, individual cells
  GABA current normalised to the fitted maximum response: 0.09711 and 0.06608 and 0.07868 and 0.1536 and 0.188
[4]; [GABA] 3, individual cells
  GABA current normalised to the fitted maximum response: 0.2349 and 0.1582 and 0.203 and 0.3143 and 0.3127
[4]; [GABA] 10, individual cells
  GABA current normalised to the fitted maximum response: 0.4431 and 0.3362 and 0.4922 and 0.6263 and 0.5927
[4]; [GABA] 30, individual cells
  GABA current normalised to the fitted maximum response: 0.548 and 0.6886 and 0.7844 and 0.7581
[4]; [GABA] 100, individual cells
  GABA current normalised to the fitted maximum response: 0.7417 and 0.7257 and 0.7724 and 0.8852 and 0.8968
[4]; [GABA] 300, individual cells
  GABA current normalised to the fitted maximum response: 0.8265 and 0.8069 and 0.8364 and 0.9453 and 0.9104
[4]; [GABA] 1000, individual cells
  GABA current normalised to the fitted maximum response: 0.9797 and 0.9449 and 0.994 and 1.0249 and 1.018
[4]; [GABA] 3000, individual cells
  GABA current normalised to the fitted maximum response: 0.9857 and 0.9907 and 1.044 and 0.9972 and 0.9754
[4]; individual cells
  nH: 0.6867 and 0.7293 and 0.7792 and 0.8713 and 0.7855
[4]; mean ± SEM, n = 5
  Hill coefficient: 0.8 ± 0.03
[5]
  Ispont, IMax from GABA: 6.076% and 14.3782% and 18.0154% and 11.8804% and 19.3061% and 35.4037% and 16.1707%
[6]
  Ispont, IMax from GABA: 0.9134% and 0.3206% and 5.267% and 3.501% and 0.7067% and 1.417%
[7]; 500 µM GABA, n = 7
  Whole-cell current activated by GABA: 237 ± 95 pA
[7]; GABA alone, individual cells
  GABA current, Supp. Fig. 2a: 0.31 and 0.16 and 0.22 and 0.23 and 0.064
  GABA current, Supp. Fig. 2b: 0.04 and 0.13 and 0.11 and 0.10 and 0.27
[8]
  GABA current, Supp. Fig. 2a: 0.41 and 0.73 and 1.32 and 2.78
  GABA current, Supp. Fig. 2b: 0.53 and 0.27 and 0.065 and 0.26 and 0.65
[9]
  GABA current, Supp. Fig. 2a: 1.69 and 2.20 and 3.55 and 12.70
